Data reported in paper PMC5580309, “Molecular-scale features that govern the effects of O-glycosylation on a carbohydrate-binding module” (Chemical Science, 2015).
Bridge positions count the residues as written; N and C are the ends. Peptide text beside a SMILES is read from it. * marks the point of attachment. X1 = OC[C@H]1O[C@H](OC[C@H]2O[C@H](*)[C@@H](O)[C@@H](O)[C@@H]2O)[C@@H](O)[C@@H](O)[C@@H]1O; X4 = OC[C@H]1O[C@H](OC[C@H]2O[C@H](*)[C@@H](O)[C@@H](O)[C@@H]2O)[C@H](O)[C@@H](O)[C@@H]1O; βGlcNAc = CC(=O)N[C@@H]1[C@@H](O)[C@H](O)[C@@H](CO)O[C@H]1*; βGlc = OC[C@H]1O[C@@H](*)[C@H](O)[C@@H](O)[C@@H]1O

Target: T1, thermolysin (Bacillus thermoproteolyticus, UniProt P00800)
T1 sequence (P00800 233-548): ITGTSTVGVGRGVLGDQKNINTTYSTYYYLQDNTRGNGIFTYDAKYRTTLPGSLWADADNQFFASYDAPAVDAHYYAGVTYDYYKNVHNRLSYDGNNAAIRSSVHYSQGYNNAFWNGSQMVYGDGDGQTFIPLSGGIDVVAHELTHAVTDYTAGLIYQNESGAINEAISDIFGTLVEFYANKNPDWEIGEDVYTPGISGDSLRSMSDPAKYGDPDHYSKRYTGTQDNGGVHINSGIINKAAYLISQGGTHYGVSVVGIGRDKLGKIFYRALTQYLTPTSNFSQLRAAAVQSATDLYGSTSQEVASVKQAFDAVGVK
Assay: Proteolytic stability: half-life to thermolysin degradation
Format: in vitro ADME
Settings: for Change in Half-Life to Thermolysin Degradation: glyco-variant minus its corresponding unglycosylated CBM (e.g. 2-1), *** not used in the correlation plot; for half-life: thermolysin (isolated protease), thermolysin degradation, mean of three trials ± SD, procedures as described previously (ESI ref 18)
Procedure: All error bars reported are standard deviations of data achieved from three separate trials.
cellulose that were determined in accordance with our procedures as described previously 18.
The results are presented as mean of three trials ± SD. *Denotes an averaged value of four trials

Structure (SMILES)	Change in Half-Life to Thermolysin Degradation	half-life
CC[C@H](C)[C@@H]1NC(=O)CNC(=O)CNC(=O)[C@@H](NC(=O)[C@H](CCC(N)=O)NC(=O)CNC(=O)[C@H](Cc2ccc(O)cc2)NC(=O)[C@H](Cc2c[nH]cn2)NC(=O)[C@H](CO[C@H]2O[C@H](CO[C@H]3O[C@H](CO)[C@@H](O)[C@H](O)[C@H]3O)[C@@H](O)[C@H](O)[C@@H]2O)NC(=O)[C@H](CCC(N)=O)NC(=O)[C@@H](N)[C@@H](C)O)CSSC[C@@H]2NC(=O)[C@H]([C@@H](C)O)NC(=O)[C@H]([C@@H](C)O)NC(=O)CNC(=O)[C@H](CO)NC(=O)[C@H](C)NC(=O)[C@H](CSSC[C@@H](C(=O)N[C@@H](CC(C)C)C(=O)O)NC(=O)[C@H](CCC(N)=O)NC(=O)[C@H](CO)NC(=O)[C@H](Cc3ccc(O)cc3)NC(=O)[C@H](Cc3ccc(O)cc3)NC(=O)[C@@H]3CCCN3C(=O)[C@H](CC(N)=O)NC(=O)[C@H](CC(C)C)NC(=O)[C@H](C(C)C)NC(=O)[C@H](CCC(N)=O)NC2=O)NC(=O)[C@H](C(C)C)NC(=O)[C@H]([C@@H](C)O)NC(=O)[C@@H]2CCCN2C(=O)CNC(=O)[C@H](CO)NC(=O)[C@H](Cc2ccc(O)cc2)NC(=O)CNC1=O [CBM variant 30] (H-TQS(X4)HYGQCGGIGYSGPTVCASGTTCQVLNPYYSQCL-OH; disulfide 8-25, 19-35)	33 min	46.8 ± 6.6 min
CC[C@H](C)[C@@H]1NC(=O)CNC(=O)CNC(=O)[C@@H](NC(=O)[C@H](CCC(N)=O)NC(=O)CNC(=O)[C@H](Cc2ccc(O)cc2)NC(=O)[C@H](Cc2c[nH]cn2)NC(=O)[C@H](CO[C@H]2O[C@H](CO[C@H]3O[C@H](CO)[C@@H](O)[C@H](O)[C@@H]3O)[C@@H](O)[C@H](O)[C@@H]2O)NC(=O)[C@H](CCC(N)=O)NC(=O)[C@@H](N)[C@@H](C)O)CSSC[C@@H]2NC(=O)[C@H]([C@@H](C)O)NC(=O)[C@H]([C@@H](C)O)NC(=O)CNC(=O)[C@H](CO)NC(=O)[C@H](C)NC(=O)[C@H](CSSC[C@@H](C(=O)N[C@@H](CC(C)C)C(=O)O)NC(=O)[C@H](CCC(N)=O)NC(=O)[C@H](CO)NC(=O)[C@H](Cc3ccc(O)cc3)NC(=O)[C@H](Cc3ccc(O)cc3)NC(=O)[C@@H]3CCCN3C(=O)[C@H](CC(N)=O)NC(=O)[C@H](CC(C)C)NC(=O)[C@H](C(C)C)NC(=O)[C@H](CCC(N)=O)NC2=O)NC(=O)[C@H](C(C)C)NC(=O)[C@H]([C@@H](C)O)NC(=O)[C@@H]2CCCN2C(=O)CNC(=O)[C@H](CO)NC(=O)[C@H](Cc2ccc(O)cc2)NC(=O)CNC1=O [CBM variant 29] (H-TQS(X1)HYGQCGGIGYSGPTVCASGTTCQVLNPYYSQCL-OH; disulfide 8-25, 19-35)	37.8 min	51.6 ± 1.8 min
CC[C@H](C)[C@@H]1NC(=O)CNC(=O)CNC(=O)[C@@H](NC(=O)[C@H](CCC(N)=O)NC(=O)CNC(=O)[C@H](Cc2ccc(O)cc2)NC(=O)[C@H](Cc2c[nH]cn2)NC(=O)[C@H](CO[C@@H]2O[C@H](CO)[C@@H](O)[C@H](O)[C@H]2NC(C)=O)NC(=O)[C@H](CCC(N)=O)NC(=O)[C@@H](N)[C@@H](C)O)CSSC[C@@H]2NC(=O)[C@H]([C@@H](C)O)NC(=O)[C@H]([C@@H](C)O)NC(=O)CNC(=O)[C@H](CO)NC(=O)[C@H](C)NC(=O)[C@H](CSSC[C@@H](C(=O)N[C@@H](CC(C)C)C(=O)O)NC(=O)[C@H](CCC(N)=O)NC(=O)[C@H](CO)NC(=O)[C@H](Cc3ccc(O)cc3)NC(=O)[C@H](Cc3ccc(O)cc3)NC(=O)[C@@H]3CCCN3C(=O)[C@H](CC(N)=O)NC(=O)[C@H](CC(C)C)NC(=O)[C@H](C(C)C)NC(=O)[C@H](CCC(N)=O)NC2=O)NC(=O)[C@H](C(C)C)NC(=O)[C@H]([C@@H](C)O)NC(=O)[C@@H]2CCCN2C(=O)CNC(=O)[C@H](CO)NC(=O)[C@H](Cc2ccc(O)cc2)NC(=O)CNC1=O [CBM variant 23] (H-TQS(βGlcNAc)HYGQCGGIGYSGPTVCASGTTCQVLNPYYSQCL-OH; disulfide 8-25, 19-35)	5.4 min	19.2 ± 0.6 min
CC[C@H](C)[C@@H]1NC(=O)CNC(=O)CNC(=O)[C@@H](NC(=O)[C@H](CCC(N)=O)NC(=O)CNC(=O)[C@H](Cc2ccc(O)cc2)NC(=O)[C@H](Cc2c[nH]cn2)NC(=O)[C@H](CO[C@@H]2O[C@H](CO)[C@@H](O)[C@H](O)[C@H]2O)NC(=O)[C@H](CCC(N)=O)NC(=O)[C@@H](N)[C@@H](C)O)CSSC[C@@H]2NC(=O)[C@H]([C@@H](C)O)NC(=O)[C@H]([C@@H](C)O)NC(=O)CNC(=O)[C@H](CO)NC(=O)[C@H](C)NC(=O)[C@H](CSSC[C@@H](C(=O)N[C@@H](CC(C)C)C(=O)O)NC(=O)[C@H](CCC(N)=O)NC(=O)[C@H](CO)NC(=O)[C@H](Cc3ccc(O)cc3)NC(=O)[C@H](Cc3ccc(O)cc3)NC(=O)[C@@H]3CCCN3C(=O)[C@H](CC(N)=O)NC(=O)[C@H](CC(C)C)NC(=O)[C@H](C(C)C)NC(=O)[C@H](CCC(N)=O)NC2=O)NC(=O)[C@H](C(C)C)NC(=O)[C@H]([C@@H](C)O)NC(=O)[C@@H]2CCCN2C(=O)CNC(=O)[C@H](CO)NC(=O)[C@H](Cc2ccc(O)cc2)NC(=O)CNC1=O [CBM variant 24] (H-TQS(βGlc)HYGQCGGIGYSGPTVCASGTTCQVLNPYYSQCL-OH; disulfide 8-25, 19-35)	3 min	16.8 ± 1.8 min
CC[C@H](C)[C@@H]1NC(=O)CNC(=O)CNC(=O)[C@@H](NC(=O)[C@H](CCC(N)=O)NC(=O)CNC(=O)[C@H](Cc2ccc(O)cc2)NC(=O)[C@H](Cc2c[nH]cn2)NC(=O)[C@H](CO)NC(=O)[C@H](C)NC(=O)[C@@H](N)[C@@H](C)O)CSSC[C@@H]2NC(=O)[C@H]([C@@H](C)O)NC(=O)[C@H]([C@@H](C)O)NC(=O)CNC(=O)[C@H](CO)NC(=O)[C@H](C)NC(=O)[C@H](CSSC[C@@H](C(=O)N[C@@H](CC(C)C)C(=O)O)NC(=O)[C@H](CCC(N)=O)NC(=O)[C@H](CO)NC(=O)[C@H](Cc3ccc(O)cc3)NC(=O)[C@H](Cc3ccc(O)cc3)NC(=O)[C@@H]3CCCN3C(=O)[C@H](CC(N)=O)NC(=O)[C@H](CC(C)C)NC(=O)[C@H](C(C)C)NC(=O)[C@H](CCC(N)=O)NC2=O)NC(=O)[C@H](C(C)C)NC(=O)[C@H]([C@@H](C)O)NC(=O)[C@@H]2CCCN2C(=O)CNC(=O)[C@H](CO)NC(=O)[C@H](Cc2ccc(O)cc2)NC(=O)CNC1=O [CBM variant 6] (H-TASHYGQCGGIGYSGPTVCASGTTCQVLNPYYSQCL-OH; disulfide 8-25, 19-35)		9.6 ± 2.4 min
CC[C@H](C)[C@@H]1NC(=O)CNC(=O)CNC(=O)[C@@H](NC(=O)[C@H](CCC(N)=O)NC(=O)CNC(=O)[C@H](Cc2ccc(O)cc2)NC(=O)[C@H](Cc2c[nH]cn2)NC(=O)[C@H](CS)NC(=O)[C@H](CCC(N)=O)NC(=O)[C@@H](N)[C@@H](C)O)CSSC[C@@H]2NC(=O)[C@H]([C@@H](C)O)NC(=O)[C@H]([C@@H](C)O)NC(=O)CNC(=O)[C@H](CO)NC(=O)[C@H](C)NC(=O)[C@H](CSSC[C@@H](C(=O)N[C@@H](CC(C)C)C(=O)O)NC(=O)[C@H](CCC(N)=O)NC(=O)[C@H](CO)NC(=O)[C@H](Cc3ccc(O)cc3)NC(=O)[C@H](Cc3ccc(O)cc3)NC(=O)[C@@H]3CCCN3C(=O)[C@H](CC(N)=O)NC(=O)[C@H](CC(C)C)NC(=O)[C@H](C(C)C)NC(=O)[C@H](CCC(N)=O)NC2=O)NC(=O)[C@H](C(C)C)NC(=O)[C@H]([C@@H](C)O)NC(=O)[C@@H]2CCCN2C(=O)CNC(=O)[C@H](CO)NC(=O)[C@H](Cc2ccc(O)cc2)NC(=O)CNC1=O [CBM variant 14] (H-TQCHYGQCGGIGYSGPTVCASGTTCQVLNPYYSQCL-OH; disulfide 8-25, 19-35)		10.8 ± 2.4 min
